Assay [1] addresses T1, ɑ1AAR (Homo sapiens, UniProt P35348). Kind of assay: α1AAR ligand screening, plasma membrane–ligand BRET (α1AAR with GLuc–PM). The note with it: for inhibition at 10 µM: 20 min.
The target in another assay is T2, GLuc–ɑ1AAR (Homo sapiens, UniProt P35348).
T2 construct: Gaussia luciferase signal peptide (N); […]; expressed in transfected cells; host or cells: HEK 293T
Kind of assay: Receptor–ligand BRET equilibrium binding, GLuc–α1AAR in HEK 293T cells. (Bioluminescence resonance energy transfer reports proximity on the nanometre scale.)

Assay [2] deals with T1, ɑ1AAR. Kind of assay: PM–ligand BRET equilibrium binding, α1AAR with GLuc–PM. More on the design: expressed in transfected cells; host or cells: HEK 293T.
Assay [3] addresses AT1 angiotensin receptor (AT1R), untagged, rat (rat) (UniProt P25095). The assay is described as follows: FRET or BRET; PM‒ligand (bystander) BRET with GLuc‒PM, equilibrium competition: live HEK 293T cells with unmodified receptor, GLuc‒PM and DN-Dyn; a fixed fluorescent ligand (1 μM TAMRA‒AngII, 300 ng/ml biotinylated EGF on Alexa Fluor 488 streptavidin, or 100 μg/ml Alexa Fluor 488 human transferrin) and increasing unlabeled ligand, 2 h at room temperature.

Assay [4] has as its target AT2 angiotensin receptor (AT2R), untagged, rat (rat) (UniProt P35351). The assay is described as above.
For assay [5], the target named is T3, AT1R (Rattus norvegicus, UniProt P25095).
T3 construct: expressed in transfected cells; host or cells: HEK 293T
T3 sequence (P25095 1-359): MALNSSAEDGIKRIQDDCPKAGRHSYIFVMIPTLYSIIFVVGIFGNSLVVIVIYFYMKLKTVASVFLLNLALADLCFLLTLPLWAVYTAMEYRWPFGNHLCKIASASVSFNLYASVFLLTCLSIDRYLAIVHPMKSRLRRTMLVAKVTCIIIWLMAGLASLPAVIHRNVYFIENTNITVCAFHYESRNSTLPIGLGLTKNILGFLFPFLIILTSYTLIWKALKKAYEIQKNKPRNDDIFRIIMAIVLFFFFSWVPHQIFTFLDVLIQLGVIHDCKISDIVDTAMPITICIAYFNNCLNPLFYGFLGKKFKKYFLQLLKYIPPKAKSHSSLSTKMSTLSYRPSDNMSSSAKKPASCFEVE
Kind of assay: PM–ligand BRET equilibrium binding, untagged AT1R with GLuc–PM. The note with it: two site competitive fit.

Assay [6] addresses T4, GLuc–AT1R (Rattus norvegicus, UniProt P25095).
T4 construct: Gaussia luciferase signal peptide (N); expressed in transfected cells; host or cells: HEK 293T
T4 sequence (P25095 1-359): T3 sequence (P25095 1-359)
Kind of assay: Kinetic receptor–ligand BRET, GLuc–AT1R. The format is binding.

The target of assay [7] is T4, GLuc–AT1R. Kind of assay: Receptor–ligand BRET equilibrium binding, GLuc–AT1R in HEK 293T cells. The note with it: 1 μM TAMRA–AngII, two site competitive fit, 2 h room temperature.
Assay [8] concerns the target T3, AT1R. The assay is described as follows: PM–ligand BRET equilibrium binding, untagged AT1R with NanoLuc–PM. The note with it: 1 μM TAMRA–AngII, two site competitive fit.
For assay [9], the target named is T3, AT1R. Kind of assay: Kinetic PM–ligand BRET, AT1R with GLuc–PM. The format is binding.
Another assay has as its target T5, NanoLuc–AT1R (Rattus norvegicus, UniProt P25095).
T5 construct: secretion signal peptide of interleukin-6 (N); expressed in transfected cells; host or cells: HEK 293T
T5 sequence (P25095 1-359): T3 sequence (P25095 1-359)
The assay is described as follows: Receptor–ligand BRET equilibrium binding, NanoLuc–AT1R in HEK 293T cells. The note with it: 1 μM TAMRA–AngII, two site competitive fit, 2 h room temperature.

The mark [10] stands for this setting: read-out: plasma membrane-ligand BRET decrease (%) Replicate1.
The mark [11] stands for this setting: read-out: plasma membrane-ligand BRET decrease (%) Replicate2.
[12] abbreviates: 375 nM BODIPY FL–prazosin, one site competitive fit, receptor–ligand BRET.
Where [13] appears, read: 375 nM BODIPY FL–prazosin, one site competitive fit, PM–ligand BRET.

Like-named read-outs stand apart in the source and are kept apart here.

From PMC7950324, “A general method for quantifying ligand binding to unmodified receptors using Gaussia luciferase” (The Journal of Biological Chemistry, 2021) come the findings set out here.

T2 sequence (P35348 whole entry): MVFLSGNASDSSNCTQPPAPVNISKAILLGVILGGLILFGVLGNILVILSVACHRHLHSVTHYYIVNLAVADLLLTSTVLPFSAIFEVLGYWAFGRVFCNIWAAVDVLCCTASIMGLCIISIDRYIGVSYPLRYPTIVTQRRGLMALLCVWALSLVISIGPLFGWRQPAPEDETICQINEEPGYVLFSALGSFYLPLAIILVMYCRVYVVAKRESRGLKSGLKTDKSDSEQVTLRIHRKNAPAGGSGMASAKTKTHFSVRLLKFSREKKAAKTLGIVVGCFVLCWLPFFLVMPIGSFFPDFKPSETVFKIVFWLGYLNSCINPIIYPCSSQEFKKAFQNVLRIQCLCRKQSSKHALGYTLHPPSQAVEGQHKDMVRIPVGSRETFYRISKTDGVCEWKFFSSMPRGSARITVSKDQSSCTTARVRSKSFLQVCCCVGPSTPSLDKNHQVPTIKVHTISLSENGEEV
T1 sequence (P35348 whole entry): as above
Chain of AT2 angiotensin receptor (AT2R), untagged, rat (rat) (P35351 whole entry): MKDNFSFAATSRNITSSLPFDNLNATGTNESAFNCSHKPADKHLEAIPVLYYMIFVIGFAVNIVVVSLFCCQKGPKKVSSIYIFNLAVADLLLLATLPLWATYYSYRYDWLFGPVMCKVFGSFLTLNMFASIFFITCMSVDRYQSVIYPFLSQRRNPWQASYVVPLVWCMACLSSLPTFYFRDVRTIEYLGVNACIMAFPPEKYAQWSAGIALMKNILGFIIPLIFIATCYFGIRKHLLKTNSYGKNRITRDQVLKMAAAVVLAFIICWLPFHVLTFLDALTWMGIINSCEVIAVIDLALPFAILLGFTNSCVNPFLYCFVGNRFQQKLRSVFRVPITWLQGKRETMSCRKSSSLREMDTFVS

For the compound `O=C(c1noc2c1COc1ccccc1-2)N1CCN(c2cccc(Cl)c2)CC1` [BCC0066678], the results for the inhibition at 10 µM on ɑ1AAR [1] (setting [10]) and at ɑ1AAR [1] (setting [11]) were -4.28% and -2.43%, respectively.
Taken in the same sequence, the figures for `Cc1cc(C)c(CNC(=O)c2ccc(NC(=O)C3CC3)cc2)c(=O)[nH]1` [BCC0003661] were -7.67% and -9.71%.
For `O=C(/C=C/c1nc2ccccc2o1)N1CCC(c2c[nH]c3ccccc23)CC1` [BCC0010913, (E)-3-(1,3-Benzoxazol-2-yl)-1-[4-(1H-indol-3-yl)piperidin-1-yl]prop-2-en-1-one], the Ki – broadly, a measure of affinity in units of concentration, obtained from inhibition or displacement – amounted to 2750 nM at GLuc–ɑ1AAR (setting [12]) and 1840 nM on ɑ1AAR [2] (setting [13]).
As for `O=C(CN1CCC(N2CCCCC2)CC1)N1CCC2(CC1)OCCO2` [BCC0092904], the inhibition at 10 µM at ɑ1AAR [1] (setting [10]) is -4.89%; at ɑ1AAR [1] (setting [11]), -1.52%.
Consider `CN(C)CCCNCc1ccc2c(c1)OCO2` [BCC0076253], for which the results for the inhibition at 10 µM at ɑ1AAR [1] (setting [10]) and at ɑ1AAR [1] (setting [11]) were -1.24% and -0.43%, respectively.
“[Sar^1,Ile^4,Ile^8]-angiotensin II (SII) (peptide)” showed an IC50 of the high-affinity site (IC50 Hi) in assay [3] of 1280 nM.
As for `CS(=O)(=O)Nc1c(O)ccc2c1CCCC2C1=NCCN1` (stereo not shown) [Compound A61603, A61603, reference compound], the inhibition at 10 µM on ɑ1AAR [1] (setting [10]) was -74%; at ɑ1AAR [1] (setting [11]) it was -76%.
Taken in the same sequence, the figures for `O=C(CN1CCN(CC(=O)Nc2cccc([N+](=O)[O-])c2)CC1)Nc1cccc([N+](=O)[O-])c1` [BCC0036095] were -1.4% and 3.14%.
Taken in the same sequence, the figures for `CSc1ccc(CNC2CN3CCC2CC3)cc1` (stereo not shown) [BCC0080607] were -0.99% and 2.8%.
With `O=C(NCCN1CCN(c2ccccc2)CC1)Nc1ccc2c(c1)OCCO2` [BCC0079473, 1-(2,3-Dihydro-1,4-benzodioxin-6-yl)-3-[2-(4-phenylpiperazin-1-yl)ethyl]urea], the Ki on GLuc–ɑ1AAR (setting [12]) stood at 248 nM; on ɑ1AAR [2] (setting [13]), 122 nM.
`FC(F)(F)c1cccc(OCCn2cncn2)c1` [BCC0089082]: the inhibition at 10 µM on ɑ1AAR [1] (setting [10]) was 2.21%; on ɑ1AAR [1] (setting [11]), 4.76%.
For `COc1ccccc1OCCNCC(O)COc1cccc2[nH]c3ccccc3c12` (stereo not shown) [carvedilol, reference compound], the Ki on GLuc–ɑ1AAR turned out to be 62.7 nM; at ɑ1AAR [2], 43.8 nM.
In the case of `CC(NC(=O)C1CC1C)c1ccc(-n2cncn2)cc1` (stereo not shown) [BCC0008909], the inhibition at 10 µM is 4.15% on ɑ1AAR [1] (setting [10]) and -0.3% on ɑ1AAR [1] (setting [11]).
Consider `CCC(=O)c1ccc(OCCN2CCOCC2)cc1` [BCC0059938], for which the results for the inhibition at 10 µM on ɑ1AAR [1] (setting [10]) and at ɑ1AAR [1] (setting [11]) were -1.24% and -1.63%, respectively.
With `CN1CCCCC1C#CC(O)(c1ccccc1)c1ccccc1` (stereo not shown) [BCC0068132], on ɑ1AAR [1], the “plasma membrane-ligand BRET decrease (%) Replicate1” value is recorded as -4,21% and the “plasma membrane-ligand BRET decrease (%) Replicate2” value was -5,19%.
Consider `Cc1cc(C(=O)NCc2ccc(F)cc2)on1` [BCC0004615], for which the inhibition at 10 µM on ɑ1AAR [1] (setting [10]) was -12.9%; at ɑ1AAR [1] (setting [11]), -13.9%.
Taken in the same sequence, the figures for `COc1ccc(C(=O)NCCN2CCN(C(=O)c3ccc(OC)c(OC)c3)CC2)cc1OC` [BCC0048283] were 0.72% and 3.82%.
Turning to `COc1ccc(-c2nnc(SCC(=O)Nc3cc(C)cc(C)c3)[nH]2)cc1` [BCC0072526, N-(3,5-Dimethylphenyl)-2-[[5-(4-methoxyphenyl)-1H-1,2,4-triazol-3-yl]sulfanyl]acetamide], the Ki is 215 nM at GLuc–ɑ1AAR (setting [12]) and 86.1 nM on ɑ1AAR [2] (setting [13]).
As for angiotensin II (AngII) (peptide), the IC50 in assay [4] worked out at 479 nM.
As to `Cc1cc(S(=O)(=O)NCc2ccccc2)ccc1OCC(=O)N1CCN(C)CC1` [BCC0113627], the inhibition at 10 µM at ɑ1AAR [1] (setting [10]) was 1.05%; on ɑ1AAR [1] (setting [11]) it was -3.63%.
With `CC[C@H](C)[C@H](NC(=O)[C@@H]1CCCN1C(=O)[C@H](Cc1c[nH]cn1)NC(=O)[C@@H](NC(=O)[C@@H](NC(=O)[C@@H](NC(=O)[C@H](CCCNC(=N)N)NC(=O)CNC)C(C)C)[C@@H](C)CC)[C@@H](C)CC)C(=O)O` [SII, [Sar^1,Ile^4,Ile^8]-angiotensin II], the IC50 on AT1R [5] (read-out: IC50_Hi, agonist binding, GLuc–PM (Fig. 2M)) was found to be 1280 nM.
`CN1CCN(C(=O)c2ccc(-n3nc(C(F)(F)F)c4c3CCCC4)cc2)CC1` [BCC0063211]: the values for the inhibition at 10 µM on ɑ1AAR [1] (setting [10]) and on ɑ1AAR [1] (setting [11]) were 3.59% and 4.59%, respectively.
Taken in the same sequence, the figures for `Cc1ccnc(SCc2nc3ccccn3c2Br)n1` [BCC0020406] were -10.3% and -12%.
Taken in the same sequence, the figures for `O=C(Cn1nnc2ccccc21)N1CCC(n2c(=O)oc3ccccc32)CC1` [BCC0101075] were -4.37% and -10.8%.
Turning to `O=C(CN1CCC(n2nnc3cc(F)ccc32)CC1)N1CCc2ccccc2C1` [BCC0061678, 1-(3,4-Dihydro-1H-isoquinolin-2-yl)-2-[4-(5-fluorobenzotriazol-1-yl)piperidin-1-yl]ethanone], the values for the Ki at GLuc–ɑ1AAR (setting [12]) and at ɑ1AAR [2] (setting [13]) were 274 nM and 180 nM, respectively.
On to `CCCN1CCC(N2CCN(S(=O)(=O)c3ccc(C)cc3)CC2)CC1` [BCC0058402], for which the inhibition at 10 µM at ɑ1AAR [1] (setting [10]) is -0.92%; on ɑ1AAR [1] (setting [11]) it was 2.58%.
For the compound `CCOc1nc2cccc(C(=O)O)c2n1Cc1ccc(-c2ccccc2-c2nnn[nH]2)cc1` [candesartan], the koff – broadly, a measure of how fast the partners let go of each other – at GLuc–AT1R [6] turned out to be 0.00123 s⁻¹; on AT1R [9] it was 0.000833 s⁻¹. The kon (as a rule, the second-order rate constant of association) on GLuc–AT1R [6] was 540000 M⁻¹ s⁻¹; on AT1R [9] it was 278000 M⁻¹ s⁻¹. Further, the IC50 on AT1R [5] (1 μM TAMRA–AngII, GLuc–PM, read-out: IC50_Hi) turned out to be 1.24 nM; on AT1R [5] (1 μM TAMRA–AngII, GLuc–PM, read-out: IC50_Lo) it was 248000 nM; at GLuc–AT1R [7] (read-out: IC50_Hi), 0.207 nM; at GLuc–AT1R [7] (read-out: IC50_Lo) it was 1.3 nM; on AT1R [8] (read-out: IC50_Hi), 1.29 nM; on AT1R [8] (read-out: IC50_Lo) it was 19.6 nM. Moreover, the IC50 turned out to be 0.52 nM at NanoLuc–AT1R (read-out: IC50_Hi) and 1 nM at NanoLuc–AT1R (read-out: IC50_Lo).
Turning to `CC(C)(C)Nc1nnc(Sc2ncnc3sccc23)s1` [BCC0117056], the values for the inhibition at 10 µM on ɑ1AAR [1] (setting [10]) and on ɑ1AAR [1] (setting [11]) were -11.6% and -0.3%, respectively.
Taken in the same sequence, the figures for `COc1ccccc1NS(=O)(=O)c1ccc2c(c1)SC(C)C(=O)N2` (stereo not shown) [BCC0083047] were -3.44% and -2.12%.
Taken in the same sequence, the figures for `C=CCOc1ccc2[nH]c(C)c(C(=O)OCC)c2c1` [BCC0065386] were 4.81% and 1.12%.
